{"source": "patent US20180258381A1", "about": "“BIO-LAMINA BIOREACTORS AND METHODS OF MAKING AND USING THE SAME” (Oregon State University, priority 2015, published 2018)", "key": {"MDH": {"test_system": "MDH", "assay": "MDH activity reactivity assay (methanol SOUR), inhibitor trials", "format": "cell-based, M. trichosporium OB3b", "experimental": "The procedure for measuring methanol dehydrogenase (MDH) activity by measuring the specific oxygen uptake rate (SOUR) has been tested on M. trichosporium OB3b cultures grown both in batch and in the chemostat. M. trichosporium OB3b cells were harvested using centrifugation. The supernatant was poured off and the cells were re-suspended in fresh media lacking a carbon source. Phosphate buffer solution was added to a sample chamber in which dissolved oxygen (DO) was measure with a DO probe. When the DO of the solution stabilized, the re-suspended cells were added to the sample chamber to measure baseline oxygen uptake by the cells without a carbon food source present. Methanol was then added to test for MDH activity. The difference in the oxygen uptake rates illustrates the MDH activity of the culture.\nMetabolic activity test methods have been developed to monitor specific activities in M. trichosporium OB3b cultures. A naphthalene oxidation assay was used to determine if sMMO is being expressed. An ethylene to ethylene oxide reaction assay and a methane oxidation assay was used to quantify MMO activity, and a methanol oxidation assay was used to estimate MDH activity. Concurrent batch metabolic tests can be conducted to investigate methanol inhibition of methane oxidation, cyclopropane to cyclopropanol conversion and concurrent/subsequent cyclopropanol inhibition of MDH activity, the effect of cyclopropanol inhibition on growth yield, and the effects of high oxygen concentration.\nThe effect of salts NaCl, NH4Cl and CaCl2 on MMO and MDH activity was evaluated using the reactivity assays described above."}, "OB3b expressing sMMO": {"test_system": "OB3b expressing sMMO", "assay": "Packed bed reactor with cyclopropane inhibitor", "format": "cell-based, Methylosinus trichosporium (OB3b)", "experimental": "A Packed Bed Reactor was used to evaluate the conversion of methane to methanol by cell of OB3b expressing sMMO. […] Cyclopropanol is expected to be produced via oxidation of cyclopropane by MMO in this example.\nA continuous flow PBR was constructed using a glass HPLC column with the dimensions 2.5 cm ID and 13 cm packing height. Methane, oxygen, and the inhibitor feed solutions dissolved in media were contained within the two 100 mL syringes. The column was packed with alginate beads with sMMO-expressing OB3b formed in-situ under aseptic conditions Immobilized culture performance was evaluated in the PBR over a range of flow rates to achieve reactor residence times (τ) ranging from 0.2, 0.3, 0.5, and 8.5 hours. Two separate experiments were carried out, one for methane transformation (conversion) without the cyclopropane inhibitor and the other with the inhibitor (FIG. 26). For the methane utilization studies, the influent solution was developed by adding 7 mL methane and 21 mL oxygen to the 100 ml syringes. For the inhibition studies 1 ml of cyclopropane was added. After equilibration for 20 minutes, the gases were ejected from the syringes, and the syringes connected to the column inlet.\nAn integrated form of the Monod equation was used to analyze the results from the PBR experiment. It relates substrate conversion across a packed bed reactor, X, to the residence time, τ (min), and initial substrate concentration So (mg/L).\nThe solids lines in FIG. 26 were computed with the integrated Monod model using the Ks and kmax obtained from the batch data. The simulation used an effectiveness factor (η) of 1 indicating no loss in cell activity. Good fit was obtained between the simple analytical solution, equation above, and the experimental observations for the uninhibited case. The maximum conversion was 95±0.8% at a τ of 8 hours. For the cyclopropane inhibition embodiment, the same kmax as non-inhibited case was used, but with a Ks four times the uninhibited case to investigate the plausibility of competitive inhibition."}}, "data": [{"smiles": "C1CC1", "note": "[CP, cyclopropane]", "values": [{"measurement": "Fraction of Activity Remaining, MDH", "setting": "MDH; CP 03 μmol", "result": 0.9}, {"measurement": "Fraction of Activity Remaining, MDH", "setting": "MDH; CP 32 μmol", "result": 0.2}, {"measurement": "Fraction of Activity Remaining, MDH", "setting": "MDH; CP 64 μmol", "result": 0.1}, {"measurement": "effect on methane transformation", "setting": "OB3b expressing sMMO; cyclopropane-amended column vs uninhibited", "result": "Inhibition of methane transformation was observed"}, {"measurement": "Methane conversion", "setting": "OB3b expressing sMMO; residence time 4 hours", "result": "68±11", "unit": "%"}, {"measurement": "methanol production selectivity (percentage of methane converted to methanol)", "setting": "OB3b expressing sMMO; residence time 4 hours", "result": "102±39", "unit": "%"}, {"measurement": "Methane conversion", "setting": "OB3b expressing sMMO; residence time 8 hours", "result": "95±1", "unit": "%"}, {"measurement": "methanol production selectivity (percentage of methane converted to methanol)", "setting": "OB3b expressing sMMO; residence time 8 hours", "result": "91±32", "unit": "%"}]}]}
